Values quoted from earlier work as cited in patent EP1085079A1, “Treatment compositions for fabrics” (THE PROCTER & GAMBLE COMPANY, priority 1999, dated 2001).

In the case of `Cn1sc2c(c1=O)CCC2` [Promexal, 2-methyl-4,5-trimethylene-4-isothiazolin-3-one], the “stability over a wide pH range” value is given as 4-12.
For `O=c1[nH]sc2ccccc12` [Proxel, 1,2-benzisothiazolin-3-one], the “stability over a wide pH range” value is listed as 4-12.
